ChEMBL document CHEMBL1135840, “Design, synthesis and pharmacological evaluation of novel pyrazolo[3,4-b]thieno[2,3-d]pyridine acid derivatives: a new class of anti-inflammatory and anti-platelet agents” (Bioorg Med Chem Lett, 2002)

What was measured:
Oryctolagus cuniculus [1] = species on record: Oryctolagus cuniculus; test: In vitro of platelet aggregation of citreated rabbit platelet-rich plasma, induced by arachidonic acid at 200 uM; type: functional
Rattus norvegicus [2] = test: Percent inhibition of cellular migration by the compound at a dose of 100 umol/kg was evaluated; type: functional
Rattus norvegicus [3] = test: Exudate volume was determined after administration at a dose of 100 umol/kg; type: functional
Rattus norvegicus [4] = test: Antiinflammatory effect at a dose of 100 umol/kg administered orally in the carrageenan-induced rat pleurisy assay (10e6 Cells/cavity); type: functional
Oryctolagus cuniculus [5] = species on record: Oryctolagus cuniculus; test: In vitro of platelet aggregation of citreated rabbit platelet-rich plasma, induced by collagen at 5 µg/mL; value expressed as slope
Oryctolagus cuniculus [6] = species on record: Oryctolagus cuniculus; test: Compound was tested for platelet aggregation in citreated rabbit platelet-rich plasma induced by arachidonic acid at 200 uM; type: functional
Cavia porcellus = species on record: Cavia porcellus; test: In vitro effect of compound on leukotriene-D4 LTD4 (100 nM) induced contraction of isolated guinea pig tracheal strip; type: functional; conditions: Trachea
Rattus norvegicus [7] = test: Percent inhibition of cellular migration by the compound at a dose of 100 umol/kg was evaluated in the carrageenan-induced rat pleurisy assay; type: functional
Rattus norvegicus [8] = test: Exudate volume was determined after administration at a dose of 100 umol/kg in the carrageenan-induced rat pleurisy assay; type: functional

| Structure (SMILES) | Aggregation (Oryctolagus cuniculus [1]) | inhibition in vivo at 100 µmol/kg (Rattus norvegicus [2]) | Exudate volume (Rattus norvegicus [3]) | Cell number (Rattus norvegicus [4]) | Aggregation (Oryctolagus cuniculus [5]) | IC50 (Oryctolagus cuniculus [6]) | IC50 (Cavia porcellus) | inhibition in vivo at 100 µmol/kg (Rattus norvegicus [7]) | Exudate volume (Rattus norvegicus [8]) |
| --- | --- | --- | --- | --- | --- | --- | --- | --- | --- |
| Cc1nn(-c2ccccc2)c2ncc3c(OCc4ccc(CC(=O)O)cc4)c(-c4ccc(Cl)cc4)sc3c12 | 60.5% | 28.7% | 3.1 mL | 21900000 | 4.7 | – | – | – | – |
| Cc1nn(-c2ccccc2)c2ncc3c(OCCCCC(=O)O)c(-c4ccc(Cl)cc4)sc3c12 | 58.9% | 30% | 3.22 mL | 21.5 | 7.5 | – | – | – | – |
| Cc1nn(-c2ccccc2)c2ncc3c(OCCCCCC(=O)O)c(-c4ccc(Cl)cc4)sc3c12 | 56.6% | 42% | 3.16 mL | 17800000 | 5.8 | – | – | – | – |
| Cc1nn(-c2ccccc2)c2ncc3c(OC(=O)CCCC(=O)O)c(-c4ccc(Cl)cc4)sc3c12 | 0% | 36.2% | 3.05 mL | 19600000 | 0 | 0.14 µM | 43.7 µM | – | – |
| COc1ccc2c(c1)c(CC(=O)O)c(C)n2C(=O)c1ccc(Cl)cc1 [INDOMETHACIN] | 0% | – | – | 23.3 | 0.4 | – | – | 24.1% | 3.21 mL |
